Test results from US9302999B2, “Substituted triazoles as herbicides” (E. I. DU PONT DE NEMOURS AND COMPANY, priority 2012, dated 2016).

How the values were obtained:
[1] = test system: winter wheat (Triticum aestivum); test: Test C pre-/postemergence: winter wheat; format: in vivo
Method in brief: (§1)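 Visual injury scored 0–100 (100 = complete control) against untreated controls after 13–15 greenhouse days. Surfactant-containing solvent formulations applied either to soil after sowing (loam/sand) or over 1- to 4-leaf plants, 2–18 cm tall.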

[2] = test system: nutsedge, yellow (yellow nutsedge, Cyperus esculentus); test: Test C pre-/postemergence: nutsedge, yellow; format: in vivo
Method in brief: as §1

[3] = test system: pigweed (Amaranthus retroflexus); test: Test A pre-/postemergence: pigweed; format: in vivo
Method in brief: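 Whole-plant greenhouse assay in loam/sand. Preemergence directed soil spray plus simultaneous postemergence spray (one- to two-leaf stage, 2–10 cm). Rated visually ~10 days later, 0 = no effect, 100 = complete control.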

[4] = test system: blackgrass (Alopecurus myosuroides); test: Test C pre-/postemergence: blackgrass; format: in vivo
Method in brief: as §1

Barnyardgrass = test: Test C preemergence: barnyardgrass; format: in vivo, Echinochloa crus-galli
[5] = test system: pigweed (Amaranthus retroflexus); test: Test C pre-/postemergence: pigweed; format: in vivo
Method in brief: as §1

[6] = test system: galium (catchweed bedstraw, Galium aparine); test: Test C pre-/postemergence: galium; format: in vivo
Method in brief: as §1

[7] = test system: morningglory (Ipomoea coccinea); test: Test C pre-/postemergence: morningglory; format: in vivo
Method in brief: as §1

wild oat (Avena fatua) = test: Test C pre-/postemergence: wild oat; format: in vivo; conditions: Postemergence
Method in brief: as §1

[8] = test system: ragweed (common ragweed, Ambrosia elation); test: Test C pre-/postemergence: ragweed; format: in vivo
Method in brief: as §1

rice (Oryza sativa) = test: Test B flooded paddy: rice; format: in vivo; conditions: Flood; 250 g ai/ha; applied to paddy water at 2-leaf stage; visually evaluated after 13 to 15 days
Method in brief: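 Visual ratings (0 = no effect, 100 = complete control) versus untreated controls were taken 13–15 days after treatment of greenhouse plants. Treatment was added to paddy water held at 3 cm depth on 2-leaf-stage seedlings.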

[9] = Postemergence, 31 g ai/ha, scale 0 to 100 (0 no effect, 100 complete control)
[10] = Postemergence, 62 g ai/ha, scale 0 to 100 (0 no effect, 100 complete control)
[11] = Postemergence, 125 g ai/ha, scale 0 to 100, 0 no effect, 100 complete control
[12] = Postemergence, 250 g ai/ha, scale 0 to 100 (0 no effect, 100 complete control)
[13] = Preemergence, 31 g ai/ha, scale 0 (no effect) to 100 (complete control)
[14] = Preemergence, 62 g ai/ha, scale of 0 to 100, 0 is no effect, 100 is complete control
[15] = Preemergence, 125 g ai/ha, scale 0 to 100, 0 no effect, 100 complete control
[16] = Preemergence, 250 g ai/ha, scale 0 to 100, 0 no effect, 100 complete control
[17] = 125 g ai/ha, scale 0 to 100, 0 no effect, 100 complete control

What does the source list for `CCc1nn(-c2ccc(F)c(F)c2)nc1Oc1ccnc(C(F)(F)F)c1` [Compound 171]?
Plant response rating, Wheat [1, 9]: 5; Plant response rating, Wheat [1, 10]: 10; Plant response rating, Wheat [1, 11]: 20; Plant response rating, Wheat [1, 12]: 20; Plant response rating, Wheat [1, 13]: 0; Plant response rating, Wheat [1, 14]: 0; Plant response rating, Wheat [1, 15]: 5; Plant response rating, Wheat [1, 16]: 45; Plant response rating, Nutsedge, Yellow [2, 9]: 5; Plant response rating, Nutsedge, Yellow [2, 10]: 5; Plant response rating, Nutsedge, Yellow [2, 11]: 10; Plant response rating, Nutsedge, Yellow [2, 12]: 10; Plant response rating, Nutsedge, Yellow [2, 13]: 0; Plant response rating, Nutsedge, Yellow [2, 14]: 0; Plant response rating, Nutsedge, Yellow [2, 15]: 0; Plant response rating, Nutsedge, Yellow [2, 16]: 0; Plant response rating, Pigweed ([3]; Postemergence, 125 g ai/ha, 0 to 100 scale, 0 is no effect, 100 is complete control): 100; Pigweed plant response rating ([3]; Postemergence, 500 g ai/ha, 0 to 100 scale, 0 is no effect, 100 is complete control): 100; Plant response rating, Pigweed ([3]; Preemergence, 125 g ai/ha, 0 to 100 scale where 0 is no effect and 100 is complete control): 100; Plant response rating, Pigweed ([3]; Preemergence, 500 g ai/ha, 0 to 100 scale (0 no effect, 100 complete control)): 100; Plant response rating, Blackgrass [4, 9]: 5; Plant response rating, Blackgrass [4, 10]: 10; Plant response rating, Blackgrass [4, 11]: 10; Plant response rating, Blackgrass ([4]; Postemergence, 250 g ai/ha, scale 0 to 100): 30; Plant response rating, Blackgrass [4, 13]: 5; Plant response rating, Blackgrass [4, 14]: 98; Plant response rating, Blackgrass [4, 15]: 100; Plant response rating, Blackgrass [4, 16]: 100; Plant response rating, Barnyardgrass (Barnyardgrass; 31 g ai/ha, scale 0 (no effect) to 100 (complete control)): 5; Plant response rating, Barnyardgrass (Barnyardgrass; 62 g ai/ha, scale of 0 to 100, 0 is no effect, 100 is complete control): 75; Plant response rating, Barnyardgrass (Barnyardgrass; [17]): 95; Plant response rating, Pigweed [5, 9]: 70; Plant response rating, Pigweed [5, 10]: 90; Plant response rating, Pigweed [5, 11]: 90; Plant response rating, Pigweed [5, 12]: 98; Plant response rating, Pigweed [5, 13]: 60; Plant response rating, Pigweed [5, 14]: 100; Plant response rating, Pigweed [5, 15]: 100; Plant response rating, Pigweed [5, 16]: 100; Plant response rating, Galium [6, 9]: 70; Plant response rating, Galium [6, 10]: 75; Plant response rating, Galium [6, 11]: 80; Plant response rating, Galium [6, 12]: 80; Plant response rating, Galium [6, 13]: 5; Plant response rating, Galium [6, 14]: 98; Plant response rating, Galium [6, 15]: 98; Plant response rating, Galium [6, 16]: 100; Plant response rating, Morningglory [7, 9]: 60; Plant response rating, Morningglory [7, 10]: 65; Plant response rating, Morningglory [7, 11]: 98; Plant response rating, Morningglory [7, 13]: 0; Plant response rating, Morningglory [7, 14]: 20; Plant response rating, Morningglory [7, 15]: 25; Plant response rating, Morningglory [7, 16]: 25; Plant response rating, Oat, Wild (wild oat (Avena fatua); 31 g ai/ha, scale 0 to 100 (0 no effect, 100 complete control)): 5; Plant response rating, Oat, Wild (wild oat (Avena fatua); 62 g ai/ha, scale 0 to 100 (0 no effect, 100 complete control)): 5; Plant response rating, Oat, Wild (wild oat (Avena fatua); [17]): 10; Plant response rating, Oat, Wild (wild oat (Avena fatua); 250 g ai/ha, scale 0 to 100 (0 no effect, 100 complete control)): 20; Plant response rating, Ragweed [8, 9]: 55; Plant response rating, Ragweed [8, 10]: 55; Plant response rating, Ragweed [8, 11]: 55; Plant response rating, Ragweed [8, 12]: 55; Plant response rating, Ragweed [8, 13]: 0; Plant response rating, Ragweed [8, 14]: 5; Plant response rating, Ragweed [8, 15]: 10; Plant response rating, Ragweed [8, 16]: 15; Plant response rating, Rice (0 to 100 scale, 0 is no effect, 100 is complete control) (rice (Oryza sativa)): 60
